PubChem BioAssay AID190 (DTP/NCI, 2004)
Where “and” joins values, the source holds several entries; their conditions need not be identical. Equal entries are not always repeated. Inconclusive results and toxic doses are left out.

System: AKR/Lw mice, AKR lymphoma ip, median survival T/C
Assay: NCI In Vivo Anticancer Drug Screen. Data for tumor model Lymphoma AKR (Transplanted) (intraperitoneal) in AKR/Lw mice
Settings: endpoint: median survival time, higher = longer survival
Description: The antitumor activity of compounds was measured in mice bearing transplantable tumors. Survival or tumor size were measured and the results are expressed as the measurement made in the treated group (T) divided by the measurement made in the vehicle treated control group (C). The tumor model used in this assay is Lymphoma AKR (Transplanted) (intraperitoneal) in AKR/Lw mice

[1] = dose: 100.0 mg/kg/injection, schedule: Q01DX001 (ip), vehicle: Klucel (hydroxypropylcellulose) (HPC)
[2] = dose: 50.0 mg/kg/injection, schedule: Q04DX003 (ip), vehicle: Klucel (hydroxypropylcellulose) (HPC)
[3] = dose: 100.0 mg/kg/injection, schedule: Q04DX003 (ip), vehicle: Klucel (hydroxypropylcellulose) (HPC)
[4] = dose: 200.0 mg/kg/injection, schedule: Q01DX001 (ip), vehicle: Klucel (hydroxypropylcellulose) (HPC)
[5] = dose: 200.0 mg/kg/injection, schedule: Q04DX003 (ip), vehicle: Klucel (hydroxypropylcellulose) (HPC)
[6] = dose: 100.0 mg/kg/injection, schedule: Q01DX001 (ip), vehicle: saline
[7] = dose: 200.0 mg/kg/injection, schedule: Q01DX001 (ip), vehicle: saline
[8] = dose: 400.0 mg/kg/injection, schedule: Q01DX001 (ip), vehicle: Klucel (hydroxypropylcellulose) (HPC)
[9] = dose: 400.0 mg/kg/injection, schedule: Q01DX001 (ip), vehicle: saline
[10] = dose: 50.0 mg/kg/injection, schedule: Q01DX001 (ip), vehicle: saline

With `COc1cc2c(cc1OC)C13CCN4CC5=CCOC6CC(=O)N2C1C6C5CC43` (stereo not given) (tested in a mixture with another compound) the T/C (dose: 45.0 mg/kg/injection, schedule: Q01DX001 (ip), vehicle: Klucel (hydroxypropylcellulose) (HPC)) was 100 % of control, the T/C (dose: 65.0 mg/kg/injection, schedule: Q01DX001 (ip), vehicle: Klucel (hydroxypropylcellulose) (HPC)) was 100 % of control and the T/C [1] was 106 % of control and 108 % of control. For the same compound, the T/C (dose: 150.0 mg/kg/injection, schedule: Q01DX001 (ip), vehicle: Klucel (hydroxypropylcellulose) (HPC)) was 100 % of control.

With `C=CCN(CC=C)c1ccc(N(CC)CC)cc1` the T/C (dose: 25.0 mg/kg/injection, schedule: Q04DX003 (ip), vehicle: Klucel (hydroxypropylcellulose) (HPC)) was 100 % of control, the T/C [2] was 94 % of control and the T/C [1] was 96 % of control. For the same compound, the T/C [3] was 97 % of control, the T/C [4] was 92 % of control and the T/C [5] was 100 % of control.

`Nc1ccccc1SC1CC(=O)N(c2ccc(I)cc2)C1=O` (stereo not given) was tested, and the T/C [1] was 93 % of control, the T/C [3] was 90 % of control and the T/C [5] was 86 % of control.

`O=C(O)/C=C/C(=O)Nc1cccc(Oc2ccc([N+](=O)[O-])cc2[N+](=O)[O-])c1` was tested, and the T/C [6] was 91 % of control and the T/C [7] was 103 % of control.

With `C1CC2C(CCCC23OCCO3)C2(C1)OCCO2` (stereo not given) the T/C [1] was 103 % of control, the T/C [6] was 106 % of control and the T/C [4] was 96 % of control. For the same compound, the T/C [7] was 106 % of control, the T/C [8] was 93 % of control and the T/C [9] was 113 % of control.

With `COC(=O)C1(C)CCC(c2ccc(OC)cc2)C(CC(=O)O)C1=O` (stereo not given) the T/C [2] was 100 % of control, the T/C [1] was 100 % of control and the T/C [3] was 100 % of control. The T/C [4] was 113 % of control and the T/C [8] was 105 % of control.

With `Cn1c(O)c(C=N)c(=O)n(C)c1=O` the T/C (dose: 12.0 mg/kg/injection, schedule: Q01DX001 (ip), vehicle: saline) was 102 % of control, the T/C (dose: 12.5 mg/kg/injection, schedule: Q04DX003 (ip), vehicle: saline) was 97 % of control and the T/C (dose: 25.0 mg/kg/injection, schedule: Q01DX001 (ip), vehicle: saline) was 105 % of control. The T/C (dose: 25.0 mg/kg/injection, schedule: Q04DX003 (ip), vehicle: saline) was 100 % of control, the T/C [10] was 100 % of control and the T/C (dose: 50.0 mg/kg/injection, schedule: Q04DX003 (ip), vehicle: saline) was 100 % of control.

`Cc1c(C(=O)O)cc2n(c1=O)Cc1cc3ccccc3nc1-2` was tested, and the T/C [10] was 102 % of control, the T/C (dose: 50.0 mg/kg/injection, schedule: Q04DX003 (ip), vehicle: saline with Tween-80) was 93 % of control and the T/C [6] was 100 % of control. For the same compound, the T/C (dose: 100.0 mg/kg/injection, schedule: Q04DX003 (ip), vehicle: saline with Tween-80) was 100 % of control and the T/C [7] was 94 % of control.

For `CCCCC(C(=O)OCC)C(CCC1CCCCC1)(C(=O)OCC)C(=O)OCC` (stereo not given), the T/C [1] was 110 % of control and the T/C [4] was 104 % of control.

In the case of `COc1ccccc1Oc1ccc(N=Cc2ccc(C)cc2)cc1`, the T/C [1] was 93 % of control, the T/C [3] was 93 % of control and the T/C [4] was 100 % of control. For the same compound, the T/C [5] was 97 % of control, the T/C [8] was 93 % of control and the T/C (dose: 400.0 mg/kg/injection, schedule: Q04DX003 (ip), vehicle: Klucel (hydroxypropylcellulose) (HPC)) was 102 % of control.

`COc1cc2ccc(CC(=O)NCc3ccccc3)cc2cc1OC` was tested, and the T/C [6] was 117 % of control, the T/C [7] was 107 % of control and the T/C (dose: 200.0 mg/kg/injection, schedule: Q04DX003 (ip), vehicle: other) was 95 % of control. The T/C [9] was 103 % of control.

For `CCCCCCCCCCCCCCCC(=O)OCC1OC(n2ccc(N)nc2=O)C(O)C1O` (stereo not given), the T/C (dose: 0.07 mg/kg/injection, schedule: Q01DX015 (ip), vehicle: saline with Tween-80) was 150 % of control, the T/C (dose: 0.15 mg/kg/injection, schedule: Q01DX015 (ip), vehicle: saline with Tween-80) was 115 % of control and the T/C (dose: 0.31 mg/kg/injection, schedule: Q01DX010 (ip), vehicle: saline with Tween-80) was 110 % of control. For the same compound, the T/C (dose: 0.62 mg/kg/injection, schedule: Q01DX010 (ip), vehicle: saline with Tween-80) was 110 % of control, the T/C (dose: 0.62 mg/kg/injection, schedule: Q01DX015 (ip), vehicle: saline with Tween-80) was 375 % of control and the T/C (dose: 1.25 mg/kg/injection, schedule: Q01DX015 (ip), vehicle: saline with Tween-80) was 165 % of control. For the same compound, the T/C (dose: 2.5 mg/kg/injection, schedule: Q01DX015 (ip), vehicle: saline with Tween-80) was 225 % of control, the T/C (dose: 3.12 mg/kg/injection, schedule: Q01DX001 (ip), vehicle: saline with Tween-80) was 111 % of control and the T/C (dose: 3.75 mg/kg/injection, schedule: Q01DX005 (ip), vehicle: saline with Tween-80) was 100 % of control and 116 % of control. For the same compound, the T/C (dose: 3.75 mg/kg/injection, schedule: Q01DX015 (ip), vehicle: saline with Tween-80) was 153 % of control, the T/C (dose: 5.0 mg/kg/injection, schedule: Q01DX010 (ip), vehicle: saline with Tween-80) was 166 % of control and 218 % of control and the T/C (dose: 5.0 mg/kg/injection, schedule: Q01DX015 (ip), vehicle: saline with Tween-80) was 212 % of control. For the same compound, the T/C (dose: 6.25 mg/kg/injection, schedule: Q01DX001 (ip), vehicle: saline with Tween-80) was 102 % of control, the T/C (dose: 6.25 mg/kg/injection, schedule: Q14DX003 (ip), vehicle: saline with Tween-80) was 112 % of control and the T/C (dose: 7.5 mg/kg/injection, schedule: Q01DX015 (ip), vehicle: saline with Tween-80) was 200 % of control. For the same compound, the T/C (dose: 10.0 mg/kg/injection, schedule: Q01DX010 (ip), vehicle: saline with Tween-80) was 180 % of control and 261 % of control, the T/C (dose: 10.0 mg/kg/injection, schedule: Q01DX015 (ip), vehicle: saline with Tween-80) was 375 % of control and the T/C (dose: 12.5 mg/kg/injection, schedule: Q01DX001 (ip), vehicle: saline with Tween-80) was 108 % of control. The T/C (dose: 12.5 mg/kg/injection, schedule: Q09DX002 (ip), vehicle: saline with Tween-80) was 113 % of control, the T/C (dose: 12.5 mg/kg/injection, schedule: Q14DX003 (ip), vehicle: saline with Tween-80) was 155 % of control and the T/C (dose: 12.5 mg/kg/injection, schedule: Q14DX004 (ip), vehicle: saline with Tween-80) was 122 % of control. The T/C (dose: 15.0 mg/kg/injection, schedule: Q01DX015 (ip), vehicle: saline with Tween-80) was 250 % of control, the T/C (dose: 18.8 mg/kg/injection, schedule: Q01DX001 (ip), vehicle: saline with Tween-80) was 121 % of control and the T/C (dose: 25.0 mg/kg/injection, schedule: Q09DX002 (ip), vehicle: saline with Tween-80) was 121 % of control. The T/C (dose: 25.0 mg/kg/injection, schedule: Q14DX003 (ip), vehicle: saline with Tween-80) was 203 % of control, the T/C (dose: 30.0 mg/kg/injection, schedule: Q01DX015 (ip), vehicle: saline with Tween-80) was 70 % of control and the T/C (dose: 45.0 mg/kg/injection, schedule: Q01DX005 (ip), vehicle: saline with Tween-80) was 61 % of control and 110 % of control. The T/C (dose: 50.0 mg/kg/injection, schedule: Q09DX002 (ip), vehicle: saline with Tween-80) was 172 % of control, the T/C (dose: 50.0 mg/kg/injection, schedule: Q14DX003 (ip), vehicle: saline with Tween-80) was 183 % of control and 343 % of control and the T/C (dose: 100.0 mg/kg/injection, schedule: Q14DX003 (ip), vehicle: saline with Tween-80) was 381 % of control. For the same compound, the T/C (dose: 100.0 mg/kg/injection, schedule: Q14DX004 (ip), vehicle: saline with Tween-80) was 182 % of control and the T/C (dose: 150.0 mg/kg/injection, schedule: Q14DX003 (ip), vehicle: saline with Tween-80) was 375 % of control.

With `CC[N+]1=NC2CCCC(C2)C1` (stereo not given) the T/C [6] was 101 % of control and the T/C [7] was 106 % of control.

With `COc1ccc(CCN2C(=O)CSC2=S)cc1OC` the T/C [1] was 100 % of control and the T/C [8] was 100 % of control.
